Source: PubChem BioAssay AID1963966 (Molecular Pharmacology Branch, DTP, NCI, 2024)

Tested on: 935938-334-R-J1-PDC spheroids with HUVEC/MSC, viability
Experiment: Anticancer human tumor 935938-334-R-J1-PDC patient-derived small intestine adenocarcinoma cell line growth inhibition [PI3K]
Details: for IC50: curve of first compound; for viability, T/C: stronger effect = lower value
Outline: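 We assembled tumor spheroids that included a stromal compartment of HUVEC and MSCs, then exposed them to targeted agents alone and together with PI3K pathway inhibitors. Concentration series descended by half-log from clinically achievable Cmax levels. Viability served as the endpoint.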

[1] = second compound 0.0316 µM, first compound 0.0316 µM
[2] = second compound 0.0316 µM, first compound 0.1 µM
[3] = second compound 0.0316 µM, first compound 0.316 µM
[4] = second compound 0.0316 µM, first compound 1 µM
[5] = second compound 0.0316 µM, first compound 3.16 µM
[6] = second compound 0.0316 µM, first compound 10 µM
[7] = second compound 0.1 µM, first compound 0.0316 µM
[8] = second compound 0.1 µM, first compound 0.1 µM
[9] = second compound 0.1 µM, first compound 0.316 µM
[10] = second compound 0.1 µM, first compound 1 µM
[11] = second compound 0.1 µM, first compound 3.16 µM
[12] = second compound 0.1 µM, first compound 10 µM
[13] = second compound 0.316 µM, first compound 0.0316 µM
[14] = second compound 0.316 µM, first compound 0.1 µM
[15] = second compound 0.316 µM, first compound 0.316 µM
[16] = second compound 0.316 µM, first compound 1 µM
[17] = second compound 0.316 µM, first compound 3.16 µM
[18] = second compound 0.316 µM, first compound 10 µM
[19] = second compound 1 µM, first compound 0.0316 µM
[20] = second compound 1 µM, first compound 0.1 µM
[21] = second compound 1 µM, first compound 0.316 µM
[22] = second compound 1 µM, first compound 1 µM
[23] = second compound 1 µM, first compound 3.16 µM
[24] = second compound 1 µM, first compound 10 µM
[25] = second compound 3.16 µM, first compound 0.0316 µM
[26] = second compound 3.16 µM, first compound 0.1 µM
[27] = second compound 3.16 µM, first compound 0.316 µM
[28] = second compound 3.16 µM, first compound 1 µM
[29] = second compound 3.16 µM, first compound 3.16 µM
[30] = second compound 3.16 µM, first compound 10 µM
[31] = second compound 10 µM, first compound 0.0316 µM
[32] = second compound 10 µM, first compound 0.1 µM
[33] = second compound 10 µM, first compound 0.316 µM
[34] = second compound 10 µM, first compound 1 µM
[35] = second compound 10 µM, first compound 3.16 µM
[36] = second compound 10 µM, first compound 10 µM
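Note: compound exposure lasted seven days before viability was read.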
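Throughout, for viability, T/C: percent of vehicle DMSO treated spheroid viability so 100% = untreated.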

CC1(C)CCC(CN2CCN(c3ccc(C(=O)NS(=O)(=O)c4ccc(NCC5CCOCC5)c([N+](=O)[O-])c4)c(Oc4cnc5[nH]ccc5c4)c3)CC2)=C(c2ccc(Cl)cc2)C1 + CC(Nc1ncnc2nc[nH]c12)c1cc2cccc(Cl)c2c(=O)n1-c1ccccc1
IC50 (second compound 0.0316 µM): 6.28 µM
IC50 (second compound 0.1 µM): 6.66 µM
IC50 (second compound 0.316 µM): 6.04 µM
IC50 (second compound 1 µM): 6.82 µM
IC50 (second compound 3.16 µM): 6.73 µM
IC50 (second compound 10 µM): 5.59 µM
viability, T/C [1]: 98.3%
viability, T/C [2]: 93.6%
viability, T/C [3]: 90.8%
viability, T/C [4]: 88.8%
viability, T/C [5]: 89%
viability, T/C [6]: 23.5%
viability, T/C [7]: 98.2%
viability, T/C [8]: 104%
viability, T/C [9]: 94.3%
viability, T/C [10]: 105%
viability, T/C [11]: 95.1%
viability, T/C [12]: 25.2%
viability, T/C [13]: 104%
viability, T/C [14]: 98.9%
viability, T/C [15]: 105%
viability, T/C [16]: 93.8%
viability, T/C [17]: 86.7%
viability, T/C [18]: 22.3%
viability, T/C [19]: 80.7%
viability, T/C [20]: 94.1%
viability, T/C [21]: 69.1%
viability, T/C [22]: 102%
viability, T/C [23]: 92.7%
viability, T/C [24]: 31.2%
viability, T/C [25]: 92.6%
viability, T/C [26]: 89.2%
viability, T/C [27]: 87.1%
viability, T/C [28]: 93.2%
viability, T/C [29]: 92.5%
viability, T/C [30]: 28.4%
viability, T/C [31]: 81.7%
viability, T/C [32]: 61.5%
viability, T/C [33]: 91.2%
viability, T/C [34]: 86.5%
viability, T/C [35]: 73.4%
viability, T/C [36]: 26.1%

C[C@@H](NC(=O)c1ncnc(N)c1Cl)c1ncc(C(=O)Nc2cc(C(F)(F)F)c(Cl)cn2)s1 + CC(Nc1ncnc2nc[nH]c12)c1cc2cccc(Cl)c2c(=O)n1-c1ccccc1
IC50 (second compound 0.0316 µM): > 10 µM
IC50 (second compound 0.1 µM): > 10 µM
IC50 (second compound 0.316 µM): > 10 µM
IC50 (second compound 1 µM): > 10 µM
IC50 (second compound 3.16 µM): > 10 µM
IC50 (second compound 10 µM): > 10 µM
viability, T/C [1]: 104%
viability, T/C [2]: 103%
viability, T/C [3]: 90.1%
viability, T/C [4]: 120%
viability, T/C [5]: 109%
viability, T/C [6]: 75.6%
viability, T/C [7]: 109%
viability, T/C [8]: 138%
viability, T/C [9]: 123%
viability, T/C [10]: 99.8%
viability, T/C [11]: 98.2%
viability, T/C [12]: 111%
viability, T/C [13]: 123%
viability, T/C [14]: 84.5%
viability, T/C [15]: 118%
viability, T/C [16]: 127%
viability, T/C [17]: 98.3%
viability, T/C [18]: 107%
viability, T/C [19]: 97.8%
viability, T/C [20]: 86.6%
viability, T/C [21]: 126%
viability, T/C [22]: 95.1%
viability, T/C [23]: 117%
viability, T/C [24]: 69.8%
viability, T/C [25]: 91.8%
viability, T/C [26]: 116%
viability, T/C [27]: 109%
viability, T/C [28]: 104%
viability, T/C [29]: 90%
viability, T/C [30]: 70%
viability, T/C [31]: 81.4%
viability, T/C [32]: 88.5%
viability, T/C [33]: 98.7%
viability, T/C [34]: 92.9%
viability, T/C [35]: 87.8%
viability, T/C [36]: 60.8%

Cn1ncnc1[C@H]1c2n[nH]c(=O)c3cc(F)cc(c23)N[C@@H]1c1ccc(F)cc1 + CC(Nc1ncnc2nc[nH]c12)c1cc2cccc(Cl)c2c(=O)n1-c1ccccc1
IC50 (second compound 0.0316 µM): > 0.1 µM
IC50 (second compound 0.1 µM): > 0.1 µM
IC50 (second compound 0.316 µM): > 0.1 µM
IC50 (second compound 1 µM): > 0.1 µM
IC50 (second compound 3.16 µM): > 0.1 µM
IC50 (second compound 10 µM): > 0.1 µM
viability, T/C (second compound 0.0316 µM, first compound 0.000316 µM): 95.3%
viability, T/C (second compound 0.0316 µM, first compound 0.001 µM): 84.7%
viability, T/C (second compound 0.0316 µM, first compound 0.00316 µM): 82.9%
viability, T/C (second compound 0.0316 µM, first compound 0.01 µM): 108%
viability, T/C [1]: 102%
viability, T/C [2]: 84.3%
viability, T/C (second compound 0.1 µM, first compound 0.000316 µM): 86.7%
viability, T/C (second compound 0.1 µM, first compound 0.001 µM): 84.5%
viability, T/C (second compound 0.1 µM, first compound 0.00316 µM): 91.8%
viability, T/C (second compound 0.1 µM, first compound 0.01 µM): 80.2%
viability, T/C [7]: 85.1%
viability, T/C [8]: 88.1%
viability, T/C (second compound 0.316 µM, first compound 0.000316 µM): 109%
viability, T/C (second compound 0.316 µM, first compound 0.001 µM): 85.4%
viability, T/C (second compound 0.316 µM, first compound 0.00316 µM): 83.6%
viability, T/C (second compound 0.316 µM, first compound 0.01 µM): 97.4%
viability, T/C [13]: 81.3%
viability, T/C [14]: 83.2%
viability, T/C (second compound 1 µM, first compound 0.000316 µM): 102%
viability, T/C (second compound 1 µM, first compound 0.001 µM): 115%
viability, T/C (second compound 1 µM, first compound 0.00316 µM): 86.3%
viability, T/C (second compound 1 µM, first compound 0.01 µM): 48.2%
viability, T/C [19]: 93.1%
viability, T/C [20]: 87.2%
viability, T/C (second compound 3.16 µM, first compound 0.000316 µM): 98%
viability, T/C (second compound 3.16 µM, first compound 0.001 µM): 71.9%
viability, T/C (second compound 3.16 µM, first compound 0.00316 µM): 90.9%
viability, T/C (second compound 3.16 µM, first compound 0.01 µM): 70.9%
viability, T/C [25]: 83.2%
viability, T/C [26]: 84.1%
viability, T/C (second compound 10 µM, first compound 0.000316 µM): 62.7%
viability, T/C (second compound 10 µM, first compound 0.001 µM): 89%
viability, T/C (second compound 10 µM, first compound 0.00316 µM): 94.6%
viability, T/C (second compound 10 µM, first compound 0.01 µM): 81.5%
viability, T/C [31]: 91.6%
viability, T/C [32]: 67.8%
